# Assay results from PMC6908673, “Tuning the in vitro sensing and signaling properties of cyanobacterial PII protein by mutation of key residues” (Scientific Reports, 2019).
# T1: SeNAGK (Synechococcus elongatus, UniProt Q6V1L5)
# T1 construct: gene argB; His6-tagged, E. coli BL21(DE3), His-Trap; hexamer, about 194 kDa
# T1 sequence (Q6V1L5 1-301): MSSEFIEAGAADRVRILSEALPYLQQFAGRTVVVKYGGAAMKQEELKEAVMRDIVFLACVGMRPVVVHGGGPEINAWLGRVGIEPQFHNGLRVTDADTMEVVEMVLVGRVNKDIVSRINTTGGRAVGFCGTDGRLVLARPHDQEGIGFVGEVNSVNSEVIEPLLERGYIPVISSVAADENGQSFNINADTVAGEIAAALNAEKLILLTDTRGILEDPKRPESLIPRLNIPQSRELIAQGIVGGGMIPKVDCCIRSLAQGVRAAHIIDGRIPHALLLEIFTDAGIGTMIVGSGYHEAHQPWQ
# B1: SeNAGK (Synechococcus elongatus PCC 7942 = FACHB-805) (protein)
# chain: T1 sequence (Q6V1L5 1-301)
# notes: His6-tagged, E. coli BL21(DE3), His-Trap; hexamer, about 194 kDa
# B2: SeNAGK, N-acetyl-L-glutamate kinase from S. elongatus PCC7942, His6-tagged (enzyme)
# chain: T1 sequence (Q6V1L5 1-301)
# notes: N-acetyl-L-glutamate kinase (NAGK) of Synechococcus elongatus PCC 7942; hexamer; also called His6-NAGK
# B3: SeNAGK + SePII (Synechococcus elongatus PCC 7942 = FACHB-805) (protein)
# chain: T1 sequence (Q6V1L5 1-301)
# notes: His6-tagged SeNAGK hexamer mixed with Strep-tagged SePII; two PII trimers sandwich one NAGK hexamer (WT); both from E. coli; with Nitrogen regulatory protein P-II
# Assays:
# PII-PipX complex = biological target: T2, PII-PipX complex (Synechococcus elongatus, UniProt P0A3F4); assay: indirect SPR, His6-PipX on Ni-NTA chip; format: binding; details: 10 mM Hepes pH 7.5, 150 mM NaCl, 1 mM MgCl2, 25 °C
# T2 construct: gene glnB; Strep-tagged PII trimer pre-incubated with His6-tagged PipX; three PipX per PII trimer; both from E. coli
# SeNAGK + SePII = biological target: T3, SeNAGK + SePII (Synechococcus elongatus, UniProt Q6V1L5); assay: coupled NAGK assay (pyruvate kinase/lactate dehydrogenase, NADH oxidation); format: biochemical; details: 25 µM arginine; 2-OG acts on PII site
# T3 construct: gene argB; His6-tagged SeNAGK hexamer mixed with Strep-tagged SePII; two PII trimers sandwich one NAGK hexamer (WT); both from E. coli; with Nitrogen regulatory protein P-II
# SeNAGK = biological target: T1, SeNAGK; assay: as above; format: biochemical
# Text: coupled NAGK assay (pyruvate kinase/lactate dehydrogenase, NADH oxidation) on SeNAGK | Arginine feedback inhibition of non-complexed SeNAGK occurred with a half maximal inhibitory concentration (IC50) of […]
# [1] = substrate: CC(=O)N[C@@H](CCC(=O)O)C(=O)O; assay: as above; format: biochemical, Synechococcus elongatus; details: without PII; without arginine
# Text: coupled NAGK assay (pyruvate kinase/lactate dehydrogenase, NADH oxidation) on SeNAGK
# [2] = biological target: the molecule itself; assay: SEC-MALS; PII mixed with NAGK (molar ratio 3:1 PII trimers to NAGK hexamers) 10 min at room temperature; Superose 6 Increase 10/300 GL; 100 mM Tris-HCl pH 7.8, 300 mM NaCl, 2 mM MgCl2, 2% glycerol; eluted fractions checked by SDS-PAGE
# [3] = substrate: CC(=O)N[C@@H](CCC(=O)O)C(=O)O; assay: coupled NAGK assay (pyruvate kinase/lactate dehydrogenase, NADH oxidation); format: biochemical, Synechococcus elongatus; details: with SePII (WT); without arginine
# Text: coupled NAGK assay (pyruvate kinase/lactate dehydrogenase, NADH oxidation) on SeNAGK + SePII
# T2 sequence (P0A3F4 whole entry): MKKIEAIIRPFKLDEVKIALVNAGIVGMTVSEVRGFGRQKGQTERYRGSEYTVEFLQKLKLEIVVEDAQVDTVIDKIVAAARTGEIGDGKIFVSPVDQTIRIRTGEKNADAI
# T2 sequence (Q7X386 1-89 partner): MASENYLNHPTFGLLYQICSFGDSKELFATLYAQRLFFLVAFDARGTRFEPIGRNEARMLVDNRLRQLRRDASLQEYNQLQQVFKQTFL
# T3 sequence (P0A3F4 whole entry partner, one chain of several): as the sequence (P0A3F4 whole entry) above
molecule,measurement,setting,value
Nc1ncnc2c1ncn2[C@@H]1O[C@H](COP(=O)(O)OP(=O)(O)O)[C@@H](O)[C@H]1O [ADP],"indirect SPR, His6-PipX on Ni-NTA chip",PII-PipX complex; 1 mM ADP,strong positive effect of ADP on the interaction of PII (WT) with PipX
O=C(O)CCC(=O)C(=O)O [2-OG],"coupled NAGK assay (pyruvate kinase/lactate dehydrogenase, NADH oxidation)",SeNAGK + SePII,complex of SeNAGK-SePII (WT) showed the typical inhibitory effect upon 2-OG addition
same,"indirect SPR, His6-PipX on Ni-NTA chip",PII-PipX complex; 1 mM 2-OG with 1 mM ATP,2-OG in presence of ATP impaired PipX-PII (WT) complex formation
N=C(N)NCCC[C@H](N)C(=O)O [arginine],IC50,SeNAGK,11 µM
B1,Km,[1],5.1 ± 0.9 mM
B2,stoichiometry N,[2],6
B3,Km,[3],2.9 ± 0.6 mM
